Test results as given in US20220332839A1, “USE OF PRG4 TO TREAT CANCER” (Lubris LLC, priority 2019, published 2022).

Key:
immobilized CD44-IgG1Fc = biological target: T1, immobilized CD44-IgG1Fc (Homo sapiens, UniProt P16070); assay: Surface plasmon resonance binding of rhPRG4 to CD44 and competition with HMW HA
T1 construct: purchased R & D systems
Method: Binding of rhPRG4 to CD44-IgG1Fc was investigated using surface plasmon resonance (Biacore T100, GE Healthcare Lifesciences, NJ, USA). Series S chips were functionalized using the human antibody capture kit (GE Life Sciences) and either CD44-IgG1Fc or IgG1FC was allowed to bind to the surface of the functionalized chips in flow cell 1 (Fc1) and flow cell 2 (Fc2), respectively. rhPRG4 was injected at 30 μL/min for 8 min at concentrations of 300, 250, 200, 150, 100 and 50 μg/mL followed by a 10 min dissociation using 0.1M HEPES, 1.5M NaCl, 30 mM EDTA, and 0.5% P20 (GE Life Sciences). The surface of the chip was regenerated at the end of each cycle with 1 min pulse of 3M MgCl2. Each analyte concentration was injected in duplicate. The resulting curves were double referenced (i.e. Fc2-Fc1, followed by subtraction of the 0 μg/mL curve). The binding kinetics and binding affinity were determined by BiaEvaluation software, using 1:1 binding/conformational change model or by steady-state equilibrium, respectively. To study the competition between rhPRG4 and HMW HA in binding to CD44, rhPRG4 was injected at concentrations ranging between 0 and 300 μg/mL as described above. Following the end of dissociation phase, HMW HA was injected at 50 μg/mL (30 μL per min) for 1 min. […]

colon cancer = assay: Treatment of a human with colon cancer, systemic administration; format: in vivo; conditions: 500 mg rhPRG4 via central venous catheter, once weekly for four weeks
Method: An 80 kg human diagnosed with colon cancer is administered recombinant human PRG4 (rhPRG4) by systemic administration via a central venous catheter. A total amount of 500 mg of rhPRG4 in 250 mL of physiological saline at a concentration of 2.0 mg/mL of lubricin is administered to create a blood concentration of approximately 100 μg/mL. The dose is administered once weekly for four weeks.

[1] = test system: non-metastatic triple negative breast cancer; assay: Treatment of a human with triple negative breast cancer, local injection; format: in vivo
Method: (§1) A human diagnosed with non-metastatic triple negative breast cancer is administered recombinant human PRG4 (rhPRG4) by local injection to the area of the tumor. Administration is done under local anesthesia. A total amount of 2 mL of rhPRG4 in physiological saline at a concentration of 100 ug/mL is administered via a 14 gauge needle. Several injections are made into the tumor and over its surface in order to disperse the dose throughout the tumor area. The dose is administered once weekly for four weeks.
as §1, with “weeks. During the dosing rhPRG4 schedule, the patient also receives a cocktail of taxane and doxorubicin per standard protocols.” for “weeks.”

PLC/PRF/5 = assay: 72-hour proliferation assay, PLC/PRF/5; format: cell-based, human; conditions: drug 2.5 μM
Method: (§2) Proliferation assay: In 100 μl complete medium, 3,000 cells were seeded in wells of a 96-well plate and left overnight to allow complete attachment. The next day (at time t=0 hours), the medium was removed and replaced with 100 μl of fresh medium in the presence/absence of Sorafenib (2.5 μM), Regorafenib (2.5 μM), rhPRG4 (12.5 to 100 μg/ml). Dimethyl sulfoxide (DMSO) and PBS+0.01% Tween-20 were used as vehicles of Sorafenib/Regorafenib, and rhPRG4, respectively. Cells in triplicate wells for each cell line were fixed at t=0 hours with 4% paraformaldehyde (PFA, pH 7.6, 10 min incubation), then stained with crystal violet (CV) and thoroughly washed to remove the excess staining. After 72 hours, the cells were fixed by adding 100 μl of 4% PFA directly to the medium (2% final PFA concentration, 20 min incubation), and processed for CV staining as previously described. Then, 100 or 200 μl of 1% sodium dodecyl-sulphate were added to the wells and the plates were left under shaking until complete CV release from stained cells. Optical density was at 595 nm wavelength measured using a plate reader.

[2] = test system: HCC cells (HLE, HLF, PLC/DC/19, Hep3B, PLC/PRF/5); assay: 72-hour proliferation assay, all HCC cells; format: cell-based, human
Method: as §2

rhPRG4: full-length recombinant human PRG4 (lubricin) glycoprotein produced by CHO-M cells; residues 25-1404 of SEQ ID NO:1
Kd (immobilized CD44-IgG1Fc; based on a rhPRG4 molecular weight of 240 KDa, read-out: apparent Kd): ~38 nM
effect on binding of HMW HA to recombinant CD44 (immobilized CD44-IgG1Fc; rhPRG4 0-300 μg/mL, then HMW HA 50 μg/mL): interfered with binding of HMW HA
tumor size by CT scan after four weeks (colon cancer): decreased in size
tumor size by CT scan after four weeks ([1]; 2 mL of 100 ug/mL rhPRG4, local injection, once weekly for four weeks): tumor has shrunk in size
tumor size by CT scan after four weeks, with taxane and doxorubicin ([1]; 2 mL of 100 ug/mL rhPRG4 locally weekly plus taxane and doxorubicin): shrunk in size and at a rate faster
rhPRG4-drug synergistic effect (PLC/PRF/5): did not respond at all
cell proliferation, rhPRG4 alone [2]: did not markedly impair the cell proliferation
